# Assay results published in the Kinase Knowledgebase extract (Sharma et al. 2016).
# Molecular target: EGFR (UniProt P00533)
# Sequence (P00533 whole entry, looked up): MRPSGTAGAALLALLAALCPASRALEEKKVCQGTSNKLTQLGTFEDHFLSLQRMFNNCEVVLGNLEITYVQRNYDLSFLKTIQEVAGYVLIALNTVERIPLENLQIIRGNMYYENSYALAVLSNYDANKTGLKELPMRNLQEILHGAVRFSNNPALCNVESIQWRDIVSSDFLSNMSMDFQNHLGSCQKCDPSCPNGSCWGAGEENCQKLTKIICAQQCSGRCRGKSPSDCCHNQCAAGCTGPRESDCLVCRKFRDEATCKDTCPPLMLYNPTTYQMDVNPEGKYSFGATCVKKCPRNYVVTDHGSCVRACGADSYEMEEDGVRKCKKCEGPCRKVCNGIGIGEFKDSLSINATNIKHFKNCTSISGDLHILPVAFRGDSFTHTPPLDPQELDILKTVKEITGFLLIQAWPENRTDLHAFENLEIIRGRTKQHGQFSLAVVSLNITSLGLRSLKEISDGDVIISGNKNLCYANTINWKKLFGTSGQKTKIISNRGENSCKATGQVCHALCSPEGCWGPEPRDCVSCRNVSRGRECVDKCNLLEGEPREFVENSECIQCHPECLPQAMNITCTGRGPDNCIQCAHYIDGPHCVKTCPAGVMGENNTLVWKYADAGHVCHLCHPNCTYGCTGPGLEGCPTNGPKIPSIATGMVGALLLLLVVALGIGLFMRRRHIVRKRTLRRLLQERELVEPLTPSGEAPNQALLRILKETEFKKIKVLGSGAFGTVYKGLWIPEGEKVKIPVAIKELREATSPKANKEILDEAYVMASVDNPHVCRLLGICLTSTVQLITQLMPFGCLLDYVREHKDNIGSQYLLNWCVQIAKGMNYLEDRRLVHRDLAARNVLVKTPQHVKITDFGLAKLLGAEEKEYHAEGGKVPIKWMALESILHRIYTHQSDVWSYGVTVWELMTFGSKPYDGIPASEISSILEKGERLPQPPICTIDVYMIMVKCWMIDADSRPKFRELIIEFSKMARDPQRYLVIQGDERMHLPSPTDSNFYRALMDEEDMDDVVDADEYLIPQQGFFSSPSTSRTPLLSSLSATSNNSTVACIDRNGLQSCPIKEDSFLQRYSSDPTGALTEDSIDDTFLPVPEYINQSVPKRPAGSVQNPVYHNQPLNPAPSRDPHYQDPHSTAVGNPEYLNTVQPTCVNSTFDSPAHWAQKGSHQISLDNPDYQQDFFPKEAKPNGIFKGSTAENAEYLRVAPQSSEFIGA
row,SMILES,IC50
1,COc1cc(Nc2ncnc(-n3c(NCc4ccc(Cl)cc4)nc4ccccc43)n2)cc(OC)c1OC,> 4.5 µg/mL
2,COc1cc(Nc2ncnc(-n3c(C)nc4ccccc43)n2)cc(OC)c1OC,2.4 to 3.5 µg/mL
3,O=c1[nH]c2ccccc2n1-c1ncnc(Nc2ccc(-c3cnco3)cc2)n1,> 4.5 µg/mL
4,COc1cc(Nc2ncnc(-n3cnc4ccccc43)n2)cc(OC)c1OC,3.5 to 4.5 µg/mL
5,COCCOc1ccc(Nc2ncnc(Nc3ccc(C)c(F)c3)n2)cc1OCCOC,> 4.5 µg/mL
6,OCc1ccc(Nc2ncnc(-c3ccccc3)n2)cc1,> 4.5 µg/mL
7,COc1cc(Nc2ncnc(-n3c(NCc4cccc(F)c4)nc4ccccc43)n2)cc(OC)c1OC,3.5 to 4.5 µg/mL
8,COC(=O)c1ccc(-c2cc(Nc3ncnc(NCCc4ccc(OC)cc4)n3)[nH]n2)cc1,> 4.5 µg/mL
9,OCc1cccc(Nc2ncnc(-c3cccnc3Nc3ccccc3)n2)c1,0.4 to 2.4 µg/mL
10,COc1cc(Nc2ncnc(-n3c(NCc4ccncc4)nc4ccccc43)n2)cc(OC)c1OC,> 4.5 µg/mL
11,COc1ccc(Nc2ncnc(NCCCN3CCCCC3C)n2)cc1OC (stereo unspecified),> 4.5 µg/mL
12,COc1cc(Nc2ncnc(Nc3ccc4cn[nH]c4c3)n2)cc(OC)c1OC,0.4 to 2.4 µg/mL
13,COc1cc(Nc2ncnc(Nc3cc(C)[nH]n3)n2)cc(OC)c1OC,3.5 to 4.5 µg/mL
14,COc1ccc(Nc2ncnc(N(C)c3ccccc3Cl)n2)cc1OC,< 0.4 µg/mL
15,CCCN(CC1CC1)c1ncnc(Nc2cc(OC)c(OC)c(OC)c2)n1,3.5 to 4.5 µg/mL
16,COc1ccccc1Nc1nc2ccccc2n1-c1ncnc(Nc2cc(OC)c(OC)c(OC)c2)n1,> 4.5 µg/mL
17,COc1ncnc(Nc2cc(OC)c(OC)c(OC)c2)n1,> 4.5 µg/mL
18,COc1ccc(Nc2ncnc(-n3c(N)nc4ccccc43)n2)cc1OC,> 4.5 µg/mL
19,COc1ccc(Nc2ncnc(NCCCOC(C)C)n2)cc1OC,> 4.5 µg/mL
20,COc1cc(Nc2ncnc(-c3cccnc3NCc3ccc(F)cc3)n2)cc(OC)c1OC,> 4.5 µg/mL
21,COc1cc(Nc2ncnc(N(C)c3ccc(Cl)cc3)n2)cc(OC)c1OC,< 0.4 µg/mL
22,Cc1ccc2c(c1)CCCN2c1ncnc(NCCCn2ccnc2)n1,> 4.5 µg/mL

row,SMILES,IC50
1,CN(c1cccc(Cl)c1)c1ncnc(Nc2cccc(OC(F)(F)F)c2)n1,< 0.4 µg/mL
2,CN(c1cccc(Cl)c1)c1ncnc(Nc2ncccn2)n1,< 0.4 µg/mL
3,COc1cc(Nc2ncnc(N3CCCC4CCCCC43)n2)cc(OC)c1OC (stereo unspecified),< 0.4 µg/mL
4,COc1cc(Nc2ncnc(Nc3ccc4[nH]ccc4c3)n2)cc(OC)c1OC,< 0.4 µg/mL
5,O=C(O)Cc1cccc(Nc2ncnc(-n3c(NCc4ccccn4)nc4ccccc43)n2)c1,> 4.5 µg/mL
6,COc1ccc2[nH]cc(CCNc3ncnc(Nc4ccc(OC)c(OC)c4)n3)c2c1,> 4.5 µg/mL
7,COc1cc(Nc2ncnc(-n3c(NCCc4ccccn4)nc4ccccc43)n2)cc(OC)c1OC,> 4.5 µg/mL
8,COc1ccc(Nc2ncnc(Nc3ccccc3C)n2)cc1OC,< 0.4 µg/mL
9,COc1ccc(Nc2ncnc(Nc3ccc(OC)c(OC)c3)n2)cc1OC,> 4.5 µg/mL
10,Cc1ccc2c(c1)CCCN2c1ncnc(Nc2cc[nH]n2)n1,0.4 to 2.4 µg/mL
11,COc1cc(Nc2ncnc(Nc3nc(C)cs3)n2)cc(OC)c1OC,0.4 to 2.4 µg/mL
12,COc1cc(Nc2ncnc(Nc3ccc(C(=O)O)cc3)n2)cc(OC)c1OC,0.4 to 2.4 µg/mL
13,COc1cc(Nc2ncnc(Nc3[nH]ncc3-c3ccccc3)n2)cc(OC)c1OC,> 4.5 µg/mL
14,Cc1ccc2c(c1)CCCN2c1ncnc(Nc2ccc3ncsc3c2)n1,0.4 to 2.4 µg/mL
15,COc1cc(Nc2ncnc(-n3c(Nc4ccc(C#N)cc4)nc4ccccc43)n2)cc(OC)c1OC,> 4.5 µg/mL
16,COc1cc(Nc2ncnc(-c3cccnc3Nc3ccc(Oc4ccccc4)cc3)n2)cc(OC)c1OC,> 4.5 µg/mL
17,COc1ccc([C@@H](C)Nc2nc3ccccc3n2-c2ncnc(Nc3cc(OC)c(OC)c(OC)c3)n2)cc1,> 4.5 µg/mL
18,COc1cc(Nc2ncnc(-c3cccnc3NC(C)c3ccccc3)n2)cc(OC)c1OC (stereo unspecified),> 4.5 µg/mL
19,COc1cc(Nc2ncnc(-n3c(NCc4ccc(OC(F)(F)F)cc4)nc4ccccc43)n2)cc(OC)c1OC,> 4.5 µg/mL
20,COc1cc(Nc2ncnc(-n3c(Nc4ccc5[nH]ncc5c4)nc4ccccc43)n2)cc(OC)c1OC,3.5 to 4.5 µg/mL
21,COc1ccc(Sc2ncnc(Nc3cc(OC)c(OC)c(OC)c3)n2)cc1,> 4.5 µg/mL

# More lines, now with the values ahead:
row,IC50,SMILES
1,> 4.5 µg/mL,COc1ccc(Nc2ncnc(Nc3cccc(-c4ccnc(C)n4)c3)n2)cc1OC
2,3.5 to 4.5 µg/mL,COc1cc(Nc2ncnc(-c3cccnc3Nc3cccc(OCc4ccccc4)c3)n2)cc(OC)c1OC
3,2.4 to 3.5 µg/mL,NC(=O)c1ccc(Nc2ncnc(Nc3cc(-c4ccco4)n[nH]3)n2)cc1
4,< 0.4 µg/mL,COc1cc(Nc2ncnc(Nc3ccc(C)cc3)n2)cc(OC)c1OC
5,> 4.5 µg/mL,COc1cc(Nc2ncnc(-c3cccnc3CCN)n2)cc(OC)c1OC
6,0.4 to 2.4 µg/mL,CC(C)Nc1ncccc1-c1ncnc(Nc2ccc(N3CCOCC3)cc2)n1
7,> 4.5 µg/mL,COc1cc(Nc2ncnc(-n3ccc4cc(Cl)ccc43)n2)cc(OC)c1OC
8,> 4.5 µg/mL,NC(=O)c1ccc(Nc2ncnc(-c3cccs3)n2)cc1
9,> 4.5 µg/mL,CC(C)(C)OC(=O)Nc1ccc(Nc2ncnc(Nc3ccc(OCc4ccccc4)cc3)n2)cc1
10,> 4.5 µg/mL,COc1cc(Nc2ncnc(-n3c(Nc4cc(OC)c(OC)c(OC)c4)nc4ccccc43)n2)cc(OC)c1OC
11,> 4.5 µg/mL,COc1cc(Nc2ncnc(-c3cccnc3NCc3ccccc3OC(F)(F)F)n2)cc(OC)c1OC
12,> 4.5 µg/mL,COC(=O)c1ccc(-c2cc(Nc3ncnc(NCCNC(C)=O)n3)[nH]n2)cc1
13,> 4.5 µg/mL,COc1cc(Nc2ncnc(Nc3ccc(S(=O)(=O)NC(C)=O)cc3)n2)cc(OC)c1OC
14,> 4.5 µg/mL,N#Cc1ccc(Nc2ncnc(-c3cccs3)n2)cc1
15,< 0.4 µg/mL,COCCOc1cc(Nc2ncnc(Nc3ccc(C)c(O)c3)n2)ccc1OC
16,> 4.5 µg/mL,COC(=O)c1ccc(-c2cc(Nc3ncnc(NCc4ccccc4F)n3)[nH]n2)cc1
17,< 0.4 µg/mL,COc1ccc(Nc2ncnc(Nc3cccc(Br)c3)n2)cc1OC

row,IC50,SMILES
1,< 0.4 µg/mL,COc1cc(Nc2ncnc(N(C)c3ccc4c(cnn4Cc4ccccc4)c3)n2)cc(OC)c1OC
2,> 4.5 µg/mL,COc1cc(Nc2ncnc(-c3cccnc3NC3CCN(Cc4ccccc4)CC3)n2)cc(OC)c1OC
3,> 4.5 µg/mL,COc1cc(Nc2ncnc(-n3c(NCc4ncccc4C)nc4ccccc43)n2)cc(OC)c1OC
4,> 4.5 µg/mL,COc1cc(Nc2ncnc(-c3ccccc3)n2)cc(OC)c1
5,> 4.5 µg/mL,CCOC(=O)c1cccc(Nc2ncnc(Nc3cc(-c4ccc(C(=O)OC)cc4)n[nH]3)n2)c1
6,> 4.5 µg/mL,COc1cc(Nc2ncnc(-c3cccs3)n2)cc(OC)c1OC
7,0.4 to 2.4 µg/mL,COc1cc(Nc2ncnc(N3c4ccccc4CC3C)n2)cc(OC)c1OC (stereo unspecified)
8,> 4.5 µg/mL,COc1cc(Nc2ncnc(-c3cccnc3NCc3ccccn3)n2)cc(OC)c1OC
9,> 4.5 µg/mL,CN(c1cccc(Cl)c1)c1ncnc(N[C@@H]2CCN(Cc3ccccc3)C2)n1
10,0.4 to 2.4 µg/mL,Nc1nc2ccccc2n1-c1ncnc(Nc2ccc(Cl)c(Cl)c2)n1
11,> 4.5 µg/mL,COC(=O)n1c(=O)n(-c2ncnc(Nc3cc(OC)c(OC)c(OC)c3)n2)c2ccccc21
12,> 4.5 µg/mL,COc1cc(Nc2ncnc(N3CCC(O)CC3)n2)cc(OC)c1OC
13,> 4.5 µg/mL,COc1cc(Nc2ncnc(-c3cccnc3Nc3ccc(C(C)=O)cc3)n2)cc(OC)c1OC
14,2.4 to 3.5 µg/mL,c1coc(-c2cc(Nc3ncnc(Nc4ccc(N5CCOCC5)cc4)n3)[nH]n2)c1
15,< 0.4 µg/mL,COc1ccc(Nc2ncnc(Nc3cc(OC)c(OC)c(OC)c3)n2)cc1O
16,0.4 to 2.4 µg/mL,COc1cc(Nc2ncnc(Nc3cc(OC)c(OC)c(OC)c3)n2)ccc1OCCN1CCOCC1
